Like-named read-outs stand apart in the source and are kept apart here.
Key:
His6-GSK-3β = biological target: T1, His6-GSK-3β (Homo sapiens, UniProt P49841); experiment: Inhibition of His6-GSK-3β kinase activity (ELISA-based format, time-resolved fluorescence readout); assay type: biochemical; settings: read-out: GSK3β IC50
T1 construct: made in house; host or cells: Sf21 insect cells (baculovirus)
Method in brief: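 Plate-bound recombinant GST-Rb substrate was phosphorylated for 30 min at 37° C by baculovirus-expressed His6-GSK-3β (200 ng/ml) at 20 μM ATP, 10 mM MgCl2, 2.5% DMSO. Europium time-resolved fluorescence of anti-phospho-Ser780 Rb signal gave inhibition, fitted to IC50.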

CDK5/GST-p25 = biological target: T2, CDK5/GST-p25 (Homo sapiens, UniProt Q00535); experiment: Inhibition of CDK5/GST-p25 kinase activity (ELISA with time-resolved fluorescence readout); assay type: biochemical
T2 construct: The final construct, encoding for full-length human CDK5; made in house; host or cells: Sf21 insect cells (baculovirus co-infection)
T2 sequence (Q00535 whole entry): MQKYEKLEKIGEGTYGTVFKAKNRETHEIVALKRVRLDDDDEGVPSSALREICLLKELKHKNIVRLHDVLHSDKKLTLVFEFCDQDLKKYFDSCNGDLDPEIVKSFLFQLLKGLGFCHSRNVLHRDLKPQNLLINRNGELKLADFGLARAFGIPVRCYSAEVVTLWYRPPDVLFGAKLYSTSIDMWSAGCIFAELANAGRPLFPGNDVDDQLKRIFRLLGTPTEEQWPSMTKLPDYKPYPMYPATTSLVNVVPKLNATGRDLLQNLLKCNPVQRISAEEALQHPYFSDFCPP
T2 sequence (Q15078 108-307 partner limits assumed): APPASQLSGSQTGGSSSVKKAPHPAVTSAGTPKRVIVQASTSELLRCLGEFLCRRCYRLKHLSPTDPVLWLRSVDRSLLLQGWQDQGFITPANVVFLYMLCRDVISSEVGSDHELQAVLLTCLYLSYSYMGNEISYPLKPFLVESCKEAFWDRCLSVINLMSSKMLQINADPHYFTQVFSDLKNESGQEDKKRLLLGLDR
Method in brief: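 The substrate, GST-Rb(773-928), was immobilised on plates and phosphorylated for 20 min at 37 °C by 2 ng/ml CDK5/GST-p25 in HEPES pH 7.2 with 10 µM ATP and 10 mM MgCl2. Both proteins were human and co-expressed in insect cells. Ser-780 phosphorylation was read by europium time-resolved fluorescence and converted to IC50.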

T1 sequence (P49841 2-419): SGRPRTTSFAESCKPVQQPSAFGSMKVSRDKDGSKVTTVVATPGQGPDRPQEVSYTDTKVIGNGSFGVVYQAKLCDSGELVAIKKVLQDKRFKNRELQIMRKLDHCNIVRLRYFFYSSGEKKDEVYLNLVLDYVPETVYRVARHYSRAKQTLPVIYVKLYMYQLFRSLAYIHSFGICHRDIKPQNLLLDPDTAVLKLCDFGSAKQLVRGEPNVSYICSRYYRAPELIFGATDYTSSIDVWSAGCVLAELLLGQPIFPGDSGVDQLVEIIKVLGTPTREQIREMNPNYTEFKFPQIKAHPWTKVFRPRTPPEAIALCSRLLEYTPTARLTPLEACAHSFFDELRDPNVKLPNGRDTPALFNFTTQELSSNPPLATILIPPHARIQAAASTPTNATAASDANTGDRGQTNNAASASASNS

SMILES | IC50 (His6-GSK-3β; class symbols) | IC50 (CDK5/GST-p25; class symbols) | melting point | IC50 (His6-GSK-3β; numeric bounds) | inhibition at 10 µM (CDK5/GST-p25) | IC50 (CDK5/GST-p25; numeric bounds)
CCCCCn1cc2c(C3C(=O)Nc4ccc(C(F)(F)F)cc43)nc(NCCN)nc2n1 (stereo not drawn) [Example 288, 3-[6-(2-Amino-ethylamino)-2-pentyl-2H-pyrazolo [3,4-d]pyrimidin-4-yl]-5-trifluoromethyl-1,3-dihydro-indol-2-one] | < 300 nM | 300 to 3000 nM | 192 °C (dec.) |  |  | 
O=C1Nc2cc(F)ccc2C1c1ncnc2c1cnn2C1CCCCC1 (stereo not drawn) [Example 73, 3-(1-Cyclohexyl-1H-pyrazolo[3,4-d]pyrimidin-4-yl)-6-fluoro-1,3-dihydro-indol-2-one] | > 10000 nM | > 10000 nM | 277 to 280 °C |  |  | 
O=C1Nc2ccc(Cl)cc2C1c1ncnc2c1cnn2C1CCCC1 (stereo not drawn) [Example 58, 5-Chloro-3-(1-cyclopentyl-1H-pyrazolo[3,4-d]pyrimidin-4-yl)-1,3-dihydro-indol-2-one] |  | > 10000 nM | 304 to 306 °C | > 3000 nM |  | 
C[C@H](O)CNc1nc(C2C(=O)Nc3ccc(Br)cc32)c2cn(C3CCCC3)nc2n1 (stereo partly drawn) [Example 372] | < 300 nM |  | > 300 °C |  | 77% | 
C=CCNc1nc(C2C(=O)Nc3ccc(C#N)cc32)c2cn(CCCCC)nc2n1 (stereo not drawn) [Example 293, 3-(6-Allylamino-2-pentyl-2H-pyrazolo[3,4-d]pyrimidin-4-yl)-2-oxo-2,3-dihydro-1H-indole-5-carbonitrile] | < 300 nM | < 300 nM | 265 °C (dec.) |  |  | 
CC(C)Cn1cc2c(C3C(=O)Nc4ccc(Br)cc43)nc(NCCN(C)C)nc2n1 (stereo not drawn) [Example 268, 5-Bromo-3-[6-(2-dimethylamino-ethylamino)-2-isobutyl-2H-pyrazolo[3,4-d]pyrimidin-4-yl]-1,3-dihydro-indol-2-one] | < 300 nM | < 300 nM | 261 to 264.5 °C |  |  | 
COCCn1cc2c(C3C(=O)Nc4ccc(Br)cc43)nc(NCCN3CCOCC3)nc2n1 (stereo not drawn) [Example 234, 5-Bromo-3-[2-(2-methoxy-ethyl)-6-(2-morpholin-4-yl-ethylamino)-2H-pyrazolo[3,4-d]pyrimidin-4-yl]-1,3-dihydro-indol-2-one] | < 300 nM | < 300 nM | > 300 °C |  |  | 
CCCn1cc2c(C3C(=O)Nc4ccc(C#N)cc43)nc(NCc3ccncc3)nc2n1 (stereo not drawn) [Example 186, 2-Oxo-3-{2-propyl-6-[(pyridine-4-ylmethyl)-amino]-2H-pyrazolo [3,4-d]pyrimidin-4-yl}-2,3-dihydro-1H-indole-5-carbonitrile] | < 300 nM | < 300 nM | 299 to 302 °C |  |  | 
CC(=O)NCCNc1nc(C2C(=O)Nc3ccccc32)c2cn(C3CCCC3)nc2n1 (stereo not drawn) [Example 158, 3-(2-cyclopentyl-6-(2-acetylamino-ethylamino)-2H-pyrazolo[3,4-d]pyrimidin-4-yl)-1,3-dihydro-indol-2-one] | 300 to 3000 nM |  | 238 to 240 °C |  |  | > 3000 nM
N#Cc1cccc2c1NC(=O)C2c1ncnc2c1cnn2C1CCCCC1 (stereo not drawn) [Example 70, 3-(1-Cyclohexyl-1H-pyrazolo [3,4-d]pyrimidin-4-yl)-2-oxo-2,3-dihydro-1H-indole-7-carbonitrile] | > 10000 nM | > 10000 nM | > 300 °C |  |  | 
O=C1Nc2ccc(C(F)(F)F)cc2C1c1nc(NCCc2ccccn2)nc2nn(C3CCCC3)cc12 (stereo not drawn) [Example 247, 3-[2-Cyclopentyl-6-(2-pyridin-2-yl-ethylamino)-2H-pyrazolo[3,4-d]pyrimidin-4-yl]-5-trifluoromethyl-1,3-dihydro-indol-2-one] | < 300 nM | > 10000 nM | > 300 °C |  |  | 
CCOCCn1cc2c(C3C(=O)Nc4ccc(Cl)cc43)nc(NCc3ccncc3)nc2n1 (stereo not drawn) [Example 214, 5-Chloro-3-{2-(2-ethoxy-ethyl)-6-[(pyridine-4-ylmethyl)-amino]-2H-pyrazolo[3,4-d]pyrimidin-4-yl}-1,3-dihydro-indol-2-one] | < 300 nM | < 300 nM | 298 to 299 °C |  |  | 
O=C1Nc2ccc(F)c(F)c2C1c1ncnc2nn(C3CCCC3)cc12 (stereo not drawn) [Example 42, 3-(2-Cyclopentyl-2H-pyrazolo[3,4-d]pyrimidin-4-yl)-4,5-difluoro-1,3-dihydro-indol-2-one] | 300 to 3000 nM | 300 to 3000 nM | 280 to 284 °C |  |  | 
N#Cc1ccc2c(c1)C(c1ncnc3c1cnn3C1CCCCC1)C(=O)N2 (stereo not drawn) [Example 68, 3-(1-Cyclohexyl-1H-pyrazolo [3,4-de]pyrimidin-4-yl)-2-oxo-2,3-dihydro-1H-indole-5-carbonitrile] | > 10000 nM | > 10000 nM | > 300 °C |  |  | 
CCOCCn1cc2c(C3C(=O)Nc4ccc(Br)cc43)nc(NCCN3CCOCC3)nc2n1 (stereo not drawn) [Example 240, 5-Bromo-3-[2-(2-ethoxy-ethyl)-6-(2-morpholin-4-yl-ethylamino)-2H-pyrazolo [3,4-d]pyrimidin-4-yl]-1,3-dihydro-indol-2-one] | < 300 nM | < 300 nM | 276 to 278 °C |  |  | 
CCOCCn1cc2c(C3C(=O)Nc4ccc(Cl)cc43)nc(NC[C@H](C)O)nc2n1 (stereo partly drawn) [Example 219, 5-Chloro-3-[2-(2-ethoxy-ethyl)-6-((S)-2-hydroxy-propylamino)-2H-pyrazolo [3,4-d]pyrimidin-4-yl]-1,3-dihydro-indol-2-one] | < 300 nM | < 300 nM | > 300 °C |  |  | 
CCCn1cc2c(C3C(=O)Nc4ccc(C#N)cc43)nc(NCCc3ccccn3)nc2n1 (stereo not drawn) [Example 187, 2-Oxo-3-[2-propyl-6-(2-pyridin-2-yl-ethylamino)-2H-pyrazolo[3,4-d]pyrimidin-4-yl]-2,3-dihydro-1H-indole-5-carbonitrile] | < 300 nM | < 300 nM | > 300 °C |  |  | 
COCCn1cc2c(C3C(=O)Nc4ccc(Br)cc43)nc(NCc3cccnc3)nc2n1 (stereo not drawn) [Example 232, 5-Bromo-3-{2-(2-methoxy-ethyl)-6-[(pyridin-3-ylmethyl)-amino]-2H-pyrazolo[3,4-d]pyrimidin-4-yl}-1,3-dihydro-indol-2-one] | < 300 nM | < 300 nM | 300 to 301 °C |  |  | 
O=C1Nc2ccccc2C1c1nc(NCCc2ccccn2)nc2nn(C3CCCC3)cc12 (stereo not drawn) [Example 242, 3-[2-Cyclopentyl-6-(2-pyridin-2-yl-ethylamino)-2H-pyrazolo[3,4-d]pyrimidin-4-yl]-1,3-dihydro-indol-2-one] | 300 to 3000 nM |  | 246 to 248 °C |  | 43% | 
CC(C)Cn1cc2c(C3C(=O)Nc4ccc(Br)cc43)nc(NCCCN3CCOCC3)nc2n1 (stereo not drawn) [Example 265, 5-Bromo-3-[2-isobutyl-6-(3-morpholin-4-yl-propylamino)-2H-pyrazolo [3,4-d]pyrimidin-4-yl]-1,3-dihydro-indol-2-one] | < 300 nM | < 300 nM | 271 to 274 °C |  |  | 
O=C1Nc2ccccc2C1c1nc(NCCc2cccnc2)nc2nn(C3CCCC3)cc12 (stereo not drawn) [Example 155, 3-[2-cyclopentyl-6-(2-pyridin-3-yl-ethylamino)-2H-pyrazolo [3,4-d]pyrimidin-4-yl]-1,3-dihydro-indol-2-one] | 300 to 3000 nM |  | 258 to 260 °C |  |  | > 1000 nM
CCOCCn1cc2c(C3C(=O)Nc4ccc(Br)cc43)nc(Cl)nc2n1 (stereo not drawn) [Example 236, 5-Bromo-3-[6-chloro-2-(2-ethoxy-ethyl)-2H-pyrazolo [3,4-d]pyrimidin-4-yl)-1,3-dihydro-indol-2-one] | > 10000 nM | > 10000 nM | 260 to 263 °C |  |  | 
O=C1Nc2ccc(C(F)(F)F)cc2C1c1ncnc2nn(C3CCCCC3)cc12 (stereo not drawn) [Example 53, 3-(2-Cyclohexyl-2H-pyrazolo [3,4-d]pyrimidin-4-yl)-5-trifluoromethyl-1,3-dihydro-indol-2-one] | 300 to 3000 nM | > 10000 nM | > 300 °C |  |  | 
C=CCn1cc2c(C3C(=O)Nc4ccc(C#N)cc43)ncnc2n1 (stereo not drawn) [Example 76, 3-(2-Allyl-2H-pyrazolo[3,4-d]pyrimidin-4-yl)-2-oxo-2,3-dihydro-1H-indole-5-carbonitrile] | 300 to 3000 nM | < 300 nM | > 300 °C |  |  | 
N#Cc1ccc2c(c1)NC(=O)C2c1ncnc2nn(C3CCCC3)cc12 (stereo not drawn) [Example 38, 3-(2-Cyclopentyl-2H-pyrazolo [3,4-d]pyrimidin-4-yl)-2-oxo-2,3-dihydro-1H-indole-6-carbonitrile] | > 10000 nM | > 10000 nM | 340 to 344 °C |  |  | 
O=C1Nc2ccc(Br)cc2C1c1ncnc2c1cnn2C1CCCCC1 (stereo not drawn) [Example 75, 5-Bromo-3-(1-Cyclohexyl-1H-pyrazolo[3,4-d]pyrimidin-4-yl)-1,3-dihydro-indol-2-one] | > 10000 nM | > 10000 nM | 305 to 308 °C |  |  | 
O=C1Nc2ccc(Br)cc2C1c1ncnc2nn(C3CCCCC3)cc12 (stereo not drawn) [Example 46, 5-Bromo-3-(2-cyclohexyl-2H-pyrazolo[3,4-d]pyrimidin-4-yl)-1,3-dihydro-indol-2-one] | < 300 nM | < 300 nM | 285 to 290 °C |  |  | 
CC(C)CNc1nc(C2C(=O)Nc3ccc(Cl)cc32)c2cn(C3CCCC3)nc2n1 (stereo not drawn) [Example 280, 5-Chloro-3-(2-cyclopentyl-6-isobutylamino-2H-pyrazolo[3,4-d]pyrimidin-4-yl)-1,3-dihydro-indol-2-one] | < 300 nM | > 10000 nM | 282 to 286 °C |  |  | 

Reference: patent US8354414B2, “Substituted bicyclic pyrimidines” (Cephalon, Inc, priority 2006, dated 2013)
